Laboratory results as given in patent US20120270237A9, “METHODS FOR THE IDENTIFICATION OF KINASE INTERACTING MOLECULES AND FOR THE PURIFICATION OF KINASE PROTEINS” (Cellzone AG, priority 2009, published 2012).

Target: T1, PIP5K2A (Homo sapiens, UniProt P48426)
T1 sequence (P48426 1-406): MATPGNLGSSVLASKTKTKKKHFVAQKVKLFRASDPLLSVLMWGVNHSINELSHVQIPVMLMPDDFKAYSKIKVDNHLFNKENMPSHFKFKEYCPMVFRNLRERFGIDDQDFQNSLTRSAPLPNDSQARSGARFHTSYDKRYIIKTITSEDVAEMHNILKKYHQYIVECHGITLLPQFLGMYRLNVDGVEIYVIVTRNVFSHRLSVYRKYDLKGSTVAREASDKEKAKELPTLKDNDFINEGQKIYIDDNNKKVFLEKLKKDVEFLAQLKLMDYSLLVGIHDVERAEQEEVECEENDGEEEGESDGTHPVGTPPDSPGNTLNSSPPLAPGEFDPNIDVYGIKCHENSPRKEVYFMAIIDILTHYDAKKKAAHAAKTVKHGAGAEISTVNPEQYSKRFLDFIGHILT
Assay: Kinobeads competition binding, L-363 cell lysate
Set-up: endogenous in cells; host or cells: L-363 (treated with MG132 for three hours before harvest)
Details: 10 μM free compound, L-363 lysate
Method: To one aliquot of cell lysate 10 μM of the free compound (FIG. 3, CZC31326) was added and allowed to bind to proteins in the lysate. Then the affinity matrix with the immobilized compound was added to capture proteins that were not interacting with the previously added free compound. Beads were separated from the lysate and bead bound proteins were eluted in SDS sample buffer and subsequently separated by SDS-Polyacrylamide gel electrophoresis (FIG. 8). Suitable gel bands were cut out and subjected to in-gel proteolytic digestion with trypsin. The second lysate aliquot was processed identically, however no free compound was added (DMSO solvent control). Peptides originating from samples 1 and 2 were labeled with iTRAQ reagents (iTRAQ 114 and iTRAQ 117) and the combined samples were analyzed with a nano-flow liquid chromatography system coupled online to a tandem mass spectrometer (LC-MS/MS) experiment followed by iTRAQ reporter ion quantification in the MS/MS spectra as described in Example 2.
For this experiment the human plasma cell leukaemia line L-363 was used (German Collection of Microorganisms and Cell Cultures, DSMZ number ACC49, Braunschweig, Germany). Cells were treated for three hours with 20 μM of the proteasome inhibitor MG132 (Z-Leu-Leu-Leu-al, Sigma C2211) prior to cell harvesting.

inhibition at 10 µM: 96.4%
SMILES: CS(=O)(=O)Nc1ccccc1Nc1nc(Nc2cccc(OCCN)c2)ncc1Cl [CZC31326, N-(2-(2-(3-(2-aminoethoxy)phenylamino)-5-chloropyrimidin-4-ylamino)phenyl)methanesulfonamide]
